Results taken from patent publication US20130302389A1, “COSMETIC COMPOSITION CONTAINING AT LEAST TWO OSMOLYTES WITH A MOISTURIZING OR ANTIAGING EFFECT” (LVMH Recherche, priority 2008, published 2013).

Test system: HSPA1A
Assay: Stimulation of HSPA1A mRNA expression in normal human epidermal keratinocytes (RT-QPCR)
Type: cell-based
Details: 24 hours, mRNA by RT-QPCR relative to G3PDH, control (untreated cells) normalized to 100% expression
Description: Cell type: normal human keratinocytes (NHK) as an immersed monolayer, strongly post-confluent and at the third subculture.
Culture medium: low-calcium K-SFM (Invitrogen) supplemented with Epidermal Growth Factor (EGF Sigma) at 2.5 ng/ml, pituitary extract (EP Invitrogen) 2.5 μg/ml and gentamicin (Sigma) 25 μg/ml. For the treatments with the various compounds, this medium is replaced with K-SFM medium not supplemented with EGF and EP.
Treatment time: 24 hours with the various kosmotropes, and other molecules or extracts, and combinations thereof.
Test compounds: the taurine, D-trehalose, inositol and betaine (Sigma) are dissolved in the culture medium and tested at concentrations of 166 and 500 μg/ml, or, when this was not possible for reasons of solubility or cytotoxicity, at substantially lower concentrations.
The combination of these four compounds in proportions of 1/1/1/1 by weight is tested at the same concentrations.
Assays of the mRNA of HMSPA1A by RT-QPCR: at the end of the incubation period, the culture supernatants are removed and the cells, rinsed with PBS (Invitrogen), are covered with a solution of Tri-reagent (Sigma) and then frozen immediately at −80° C.
Extraction of the total RNA is performed according to the protocol of the Tri-reagent supplier (Sigma) and removal of the traces of DNA is performed with the DNA-free kit (Ambion). The reverse transcription reaction is performed using Oligo(dT) primers and the enzyme superscript II (Gibco).
The PCR (Polymerase Chain Reaction) reactions are performed using a Light Cycler (Roche Molecular Systems, Inc.) and according to the procedures recommended by the supplier. The pairs of primers used in this study allow amplification of the following fragments:
Homo sapiens heat shock protein HSP70 protein 1A (abbreviation HSPA1A; Gene bank NM 02045; fragment size 213 bp) and liver glyceraldehyde 3-phosphate dehydrogenase 1A (abbreviation G3PDH; Gene bank NM 02046; fragment size 269 bp) serving as the reference gene (caretaker gene) for determining the relative expression of the target HSPA1A.
The reaction medium (10 μl) is formed from the primers for the two target mRNAs (HSPA1A and G3PDH), 2.5 μl of tenfold-diluted cDNA, reaction mixture (Roche) containing the enzyme Taq DNA polymerase, SYBR Green I fluorochrome (which becomes incorporated into the double-stranded DNA during the elongation step), and MgCl2.
The incorporation of fluorescence into the amplified DNA is measured continuously in the course of the PCR cycles. For the same used marker, the later a sample leaves (high number of cycles), the lower the initial number of copies of mRNA.
Normal human keratinocyte cultures are treated for 24 hours with noncytotoxic doses (166 and 500 μg/ml) of each of the four osmolytes separately: taurine, D-trehalose, inositol and betaine. The transcriptional expression of HMSPA1A is measured by RT-PCR.
The control (untreated cells) is normalized to correspond to 100% expression.

## OC[C@H]1O[C@H](O[C@H]2O[C@H](CO)[C@@H](O)[C@H](O)[C@H]2O)[C@H](O)[C@@H](O)[C@@H]1O [D-trehalose]
166 μg/ml
  stimulation of expression of HSPA1A: 142%
500 μg/ml
  stimulation of expression of HSPA1A: 181%

## NCCS(=O)O [Hypotaurine, hypotaurine]
166 μg/ml
  stimulation of expression of HSPA1A: 379%

## C[N+](C)(C)CC(=O)O [betaine]
166 μg/ml
  stimulation of expression of HSPA1A: 52%
500 μg/ml
  stimulation of expression of HSPA1A: 85%

## O[C@H]1[C@H](O)[C@@H](O)[C@H](O)[C@@H](O)[C@H]1O [inositol]
166 μg/ml
  stimulation of expression of HSPA1A: 90%
500 μg/ml
  stimulation of expression of HSPA1A: 101%

## NCCS(=O)(=O)O [taurine]
166 μg/ml
  stimulation of expression of HSPA1A: 171%
500 μg/ml
  stimulation of expression of HSPA1A: 139%
